Results on 2 sequences are retold here after patent US5576208A, “Antisense oligonucleotide inhibition of the RAS gene” (priority 1994, dated 1996).

The test system of data set [1] is 25-base oligoribonucleotide of activated H-ras mRNA, mammalian RNase H. As to the kind of experiment: RNase H cleavage in vitro with HeLa nuclear extracts. The data set is classed as biochemical, human. As to conditions: HeLa nuclear extracts as source of RNase H. As to the method: RNase H assays were performed using a chemically synthesized 25-base oligoribonucleotide corresponding to bases +23 to +47 of activated (codon 12, G→U) H-ras mRNA. The 5' end-labeled RNA was used at a concentration of 20 nM and incubated with a 10-fold molar excess of antisense oligonucleotide in a reaction containing 20 mM tris-Cl, pH 7.5, 100 mM KCl, 10 mM MgCl2, 1 mM dithiothreitol, 10 μg tRNA and 4 U RNasin in a final volume of 10 μl. The reaction components were preannealed at 37° C. for 15 Minutes then allowed to cool slowly to room temperature. HeLa cell nuclear extracts were used as a source of mammalian RNase H. Reactions were initiated by addition of 2 μg of nuclear extract (5 μl) and reactions were allowed to proceed for 10 Minutes at 37° C. Reactions were stopped by phenol/chloroform extraction and RNA components were precipitated with ethanol. Equal CPMs were loaded on a 20% polyacrylamide gel containing 7M urea and RNA cleavage products were resolved and visualized by electrophoresis followed by autoradiography. Quantitation of cleavage products was performed using a Molecular Dynamics Densitometer.

In data set [2] the test system is 47-mer H-ras RNA hairpin target. As to the kind of experiment: Gel shift assay.
Method: The structured ras target transcript, a 47-nucleotide hairpin containing the mutated codon 12, was prepared and mapped as described in Lima et al., Biochemistry 1991, 31, 12055-12061. Hybridization reactions were prepared in 20 μl containing 100 mM sodium, 10 mM phosphate, 0.1 mM EDTA, 100 CPM of T7-generated RNA (approximately 10 pM), and antisense oligonucleotide ranging in concentration from 1 pM to 10 μM. Reactions were incubated 24 hours at 37° C. Following hybridization, loading buffer was added to the reactions and reaction products were resolved on 20% native polyacrylamide gels, prepared using 45 mM tris-borate and 1 mM MgCl2 (TBM). Electrophoresis was carried out at 10° C. and gels were quantitated using a Molecular Dynamics Phosphorimager.
Data set [3] relates to full length H-ras mRNA (activated, codon 12). The data set is described as follows: ras transactivation reporter gene system. The conditions noted are these: Table 5, antisense activity against H-ras; listed as Deoxy.
For data set [4], the system named is normal (wild type) H-ras RNA, ras-luciferase fusion reporter in HeLa cells. The data set is described as follows: ras-luciferase reporter gene assay, normal form. The conditions noted are these: read-out: IC50, inhibition of ras-luciferase activity; normal (unmutated) ras-luciferase, dose-response. On the technique in general: In a reporter assay the amount or activity of a reporter protein is the signal.

In data set [5] the test system is ras mRNA in T24 cells (activated codon 12). As to the kind of experiment: Northern blot analysis of ras expression in T24 cells. The class given is cell-based, human. Also noted: inhibition of ras mRNA: concentration or dose not given beside the values. As to the method:
The human urinary bladder cancer cell line T24 was obtained from the American Type Culture Collection (Rockville Md.). Cells were grown in McCoy's 5 A medium with L-glutamine (Gibco BRL, Gaithersburg Md.), supplemented with 10% heat-inactivated fetal calf serum and 50 U/ml each of penicillin and streptomycin. Cells were seeded on 100 Mm plates. When they reached 70% confluency, they were treated with oligonucleotide. Plates were washed with 10 ml prewarmed PBS and 5 ml of Opti-MEM reduced-serum medium containing 2.5 μl DOTMA. Oligonucleotide was then added to the desired concentration. After 4 hours of treatment, the medium was replaced with McCoy's medium. Cells were harvested 48 hours after oligonucleotide treatment and RNA was isolated using a standard CsCl purification method.
(§1) Northern hybridization: 10 μg of each RNA was electrophoresed on a 1.2% agarose/formaldehyde gel and transferred overnight to GeneBind 45 nylon membrane (Pharmacia LKB, Piscataway, N.J.) using standard methods. […] RNA was UV-crosslinked to the membrane. Double-stranded ^32 P-labeled probes were synthesized using the Prime a Gene labeling kit (Promega, Madison Wis.). The ras probe was a SalI-NheI fragment of a cDNA clone of the activated (mutant) H-ras mRNA having a GGC-to-GTC mutation at codon-12. The control probe was G3PDH. Blots were prehybridized for 15 Minutes at 68° C. with the QuickHyb hybridization solution (Stratagene, La Jolla, Calif.). The heat-denatured radioactive probe (2.5×10^6 counts/2 ml hybridization solution) mixed with 100 μl of 10 Mg/ml salmon sperm DNA was added and the membrane was hybridized for 1 hour at 68° C. The blots were washed twice for 15 minutes at room temperature in 2× SSC/0.1% SDS and once for 30 minutes at 60° C. with 0.1XSSC/0.1%SDS. Blots were autoradiographed and the intensity of signal was quantitated using an ImageQuant PhosphorImager (Molecular Dynamics, Sunnyvale, Calif.). Northern blots were first hybridized with the ras probe, then stripped by boiling for 15 Minutes in 0.1× SSC/0.1%SDS and rehybridized with the control G3PDH probe to check for correct sample loading.

Data set [6] concerns mutant (activated, codon 12) H-ras RNA, ras-luciferase fusion reporter in HeLa cells. The data set is described as follows: ras-luciferase reporter gene assay, mutant form.
The subject of data set [7] is 25-mer oligoribonucleotide complement (H-ras codon 12 RNA target). The data set is described as follows: Melting curves, hybridization to 25-mer RNA target. The data set is classed as binding, human. As to the method: Absorbance vs temperature curves were measured at 260 nm using a Gilford 260 spectrophotometer interfaced to an IBM PC computer and a Gilford Response II spectrophotometer. The buffer contained 100 mM Na^+, 10 mM phosphate and 0.1 mM EDTA, pH 7. Oligonucleotide concentration was 4 μM each strand determined from the absorbance at 85° C. and extinction coefficients calculated according to Puglisi and Tinoco, Methods in Enzymol. 1989, 180, 304-325. Tm values, free energies of duplex formation and association constants were obtained from fits of data to a two state model with linear sloping baselines. Petersheim, M. and Turner, D.H., Biochemistry 1983, 22, 256-263. Reported parameters are averages of at least three experiments. For some oligonucleotides, free energies of duplex formation were also obtained from plots of Tm^-1 vs log10 (concentration). Borer, P.N., Dengler, B., Tinoco, I., Jr., and Uhlenbeck, O.C., J. Mol. Biol., 1974, 86, 843-853.

The conditions of data set [8]: HeLa cell extract, 37° C.
Method: Oligonucleotides were incubated in crude HeLa cellular extracts at 37° C. to determine their sensitivity to nuclease degradation as described in Dignam et al., Nucleic Acids Res. 1983, 11, 1475-1489.
For another data set, the system named is T24 cancer cells. As to the kind of experiment: Inhibition of proliferation of cancer cells. The class given is cell-based, human. As to the method:
Cells were seeded on 60 mm plates and were treated with oligonucleotide in the presence of DOTMA when they reached 70% confluency. Time course experiment: On day 1, cells were treated with a single dose of oligonucleotide at a final concentration of 100nM. The growth medium was changed once on day 3 and cells were counted every day for 5 days, using a counting chamber.

Data set [9] concerns ras mRNA in HeLa cells (wild-type H-ras codon 12). As to the kind of experiment: Northern blot analysis of ras expression in HeLa cells. The data set is classed as cell-based, human. As for the experimental part: HeLa cells were maintained as monolayers on 6-well plates in Dulbecco's Modified Eagle's medium (DMEM) supplemented with 10% fetal bovine serum and 100 U/ml penicillin. Treatment with oligonucleotide and isolation of RNA were essentially as described above for T24 cells.
as §1, with “Northern blots were first hybridized with the ras probe, then stripped by boiling for 15 Minutes in 0.1× SSC/0.1%SDS and rehybridized with the control G3PDH probe to check for correct sample loading.” left out

Entries after “also recorded” stand apart in the source; their conditions may differ.

For the sequence “CCACACCGACGGCGCCC (chemistry not given here) [compound 4122]”, the “ability to direct RNase H cleavage” value in [1] was “no cleavage was observed”. In addition, the “binding to the hairpin target” value in data set [2] (listed as full 2'--O--methyl 17-mer) is reported as “formed the most stable duplex”.

By Tm is commonly meant the temperature at which the thermal transition is half complete. For “CCACACCGACGGCGCCC [2570] (phosphorothioate, further chemistry not given here) [compound 2570]”, the IC50 in data set [3] was 150 nM; in data set [4], around 250 nM; in data set [6] (read-out: IC50, inhibition of ras-luciferase activity, mutant ras-luciferase, dose-response) it was around 100 nM; in the data set on T24 cancer cells (T24 cells, dose-response, counted 3 days later, read-out: IC50, cell proliferation), 98 nM. Further, the “inhibition of ras expression” value in data set [5] was “inhibited ras expression in T24 cells; also recorded: decreased ras mRNA levels in T24 cells”; in data set [9], “did not inhibit ras expression in HeLa cells”. In addition, the “inhibition of ras mRNA” value in data set [5] came to 82%. The “selectivity for inhibition of mutant ras-luciferase relative to wild type” value in data set [6] (100 nM oligonucleotide) was “approximately 4 fold”. Besides, the “selectivity toward the mutant form of ras-luciferase as compared to the normal form” value in [6] (at low concentrations) was “approximately threefold”. Besides, the “selectivity, mutant over wild type” value in data set [6] (dose-dependent experiment, FIG. 8) is reported as 5 fold. The “selectivity toward the mutated form of ras-luciferase” value in data set [6] (single dose 0.5 μM) is recorded as “displayed selectivity toward the mutated form of ras-luciferase”. Moreover, the Tm in data set [7] (Table 5, 2'-modified 17-mer with 7-deoxy gap, 25-mer oligoribonucleotide complement) was 64.2 °C. Also, in data set [7] (free energy difference between hybridization to mutant target and to wild type target), the “ΔΔG°37” value was “+1.8 kcal/mole”. Further, the “degradation” value in data set [8] is “no degradation after 5 hours”. Moreover, the “inhibition of T24 cell proliferation relative to HeLa cells” value in the data set with T24 cancer cells (100 nM oligonucleotide concentration) was “four times as severe”. Besides, the “inhibition of cell proliferation” value in the data set with T24 cancer cells (T24 cells) stood at 61%. Further, in data set [2] (listed as full deoxy 17-mer), the “binding to the hairpin target” value is “formed the least stable duplex”.
